Results on three molecules are retold here after ChEMBL document CHEMBL3352247, “Synthesis and antimycobacterial evaluation of 5-alkylamino-N-phenylpyrazine-2-carboxamides” (Bioorg Med Chem, 2015).

The MIC is the lowest concentration found to suppress growth.

Assay [1] relates to Trichophyton mentagrophytes. As to the kind of experiment: Antifungal activity against Trichophyton mentagrophytes 445 after 72 to 120 hrs by two-fold dilution method. The class given is functional, organism-based.
Another assay relates to Pseudomonas aeruginosa. As to the kind of experiment: Antibacterial activity against Pseudomonas aeruginosa CCM 1961 after 24 to 48 hrs by broth microdilution method. The class given is functional, organism-based.
For assay [2], the system named is Staphylococcus aureus. As to the kind of experiment: Antibacterial activity against methicillin-resistant Staphylococcus aureus H 5996/08 clinical isolate after 24 to 48 hrs by broth microdilution method. The format is functional, organism-based. A general note: Broth dilution looks for growth in wells or tubes with falling amounts of substance.
In the next assay the test system is Escherichia coli. As to the kind of experiment: Antibacterial activity against Escherichia coli CCM 4517 after 24 to 48 hrs by broth microdilution method. The format is functional, organism-based.
Assay [3] in a line: Antimycobacterial activity against Mycobacterium avium subsp. avium Chester CNCTC My 80/72 after 5 days by AlamarBlue assay. The class given is functional. The settings on record: Chester CNCTC My 80/72, 120 h. (In general: Resazurin is reduced to fluorescent resorufin, in cell work by metabolically active cells.)
The test system of the next assay is Trichosporon asahii. As to the kind of experiment: Antifungal activity against Trichosporon asahii 1188 after 24 to 48 hrs by two-fold dilution method. The format is functional, organism-based.
The test system of another assay is Nakaseomyces glabratus. As to the kind of experiment: Antifungal activity against Candida glabrata 20/I after 24 to 48 hrs by two-fold dilution method. The format is functional, organism-based.
Another assay has as its system Candida albicans. As to the kind of experiment: Antifungal activity against Candida albicans ATCC 44859 after 24 to 48 hrs by two-fold dilution method. The format is functional, organism-based.
The test system of a further assay is Mycobacterium kansasii. As to the kind of experiment: Antimycobacterial activity against Mycobacterium kansasii CNCTC My 235/80 after 5 to 7 days by AlamarBlue assay. The class given is functional.
The subject of a further assay is Lichtheimia corymbifera. As to the kind of experiment: Antifungal activity against Absidia corymbifera 272 after 24 to 48 hrs by two-fold dilution method. The class given is functional, organism-based.
Assay [4] concerns Klebsiella pneumoniae. As to the kind of experiment: Antibacterial activity against Klebsiella pneumoniae D 11750/08 clinical isolate after 24 to 48 hrs by broth microdilution method. The format is functional, organism-based.
The subject of the next assay is Aspergillus fumigatus. As to the kind of experiment: Antifungal activity against Aspergillus fumigatus 231 after 24 to 48 hrs by two-fold dilution method. The format is functional, organism-based.
Assay [5] has as its system Mycobacterium tuberculosis. As to the kind of experiment: Antimycobacterial activity against Mycobacterium tuberculosis H37Rv CNCTC My 331/88 after 10 to 14 days by AlamarBlue assay. The format is functional.
The test system of assay [6] is Staphylococcus aureus. As to the kind of experiment: Antibacterial activity against Staphylococcus aureus CCM 4516/08 after 24 to 48 hrs by broth microdilution method. The format is functional, organism-based.
The test system of assay [7] is Enterococcus sp. As to the kind of experiment: Antibacterial activity against Enterococcus sp. after 24 to 48 hrs by broth microdilution method. The class given is functional.
For assay [8], the system named is Klebsiella pneumoniae. As to the kind of experiment: Antibacterial activity against ESBL-positive Klebsiella pneumoniae J 14368/08 clinical isolate after 24 to 48 hrs by broth microdilution method. The format is functional, organism-based.
A further assay relates to Candida tropicalis. As to the kind of experiment: Antifungal activity against Candida tropicalis 156 after 24 to 48 hrs by two-fold dilution method. The class given is functional, organism-based.
The subject of assay [9] is Enterococcus sp. As to the kind of experiment: Antibacterial activity against Enterococcus sp. J 14365/08 clinical isolate after 24 to 48 hrs by broth microdilution method. The class given is functional, organism-based.
Assay [10] concerns Staphylococcus epidermidis. As to the kind of experiment: Antibacterial activity against Staphylococcus epidermidis H 6966/08 clinical isolate after 24 to 48 hrs by broth microdilution method. The class given is functional, organism-based.
The next assay has as its system Pichia kudriavzevii. As to the kind of experiment: Antifungal activity against Candida krusei E28 after 24 to 48 hrs by two-fold dilution method. The class given is functional, organism-based.

Each structure is given as a SMILES string. In brackets after ≈: the same amount, converted by molar mass. Activity calls are given as the source filed them. The calls are words filed in the database; no cut-off is given here. Bounds are passed on as bounds.

In the case of `CCCCCCNc1cnc(C(=O)Nc2ccccc2)cn1`, the result (in [1]; with Pseudomonas aeruginosa; in the assay on Staphylococcus aureus [2]; in the assay on Escherichia coli; with Trichosporon asahii; in the assay on Nakaseomyces glabratus) was inactive. The result in the assay on Candida albicans, in the assay on Lichtheimia corymbifera, with Klebsiella pneumoniae [4], in the assay on Aspergillus fumigatus, in the assay with Staphylococcus aureus [6] and in the assay on Klebsiella pneumoniae [8] was inactive. Besides, the outcome (with Candida tropicalis; with Enterococcus sp. [9]; in [10]; with Pichia kudriavzevii) was inactive. The MIC in assay [3] is over 100 µg/mL; against Mycobacterium kansasii, 2.6 µM; in assay [5], 2.6 µM (≈ 0.776 µg/mL). The result in the assay on Enterococcus sp. [7] was Active.

As for `CCCCCCCCNc1cnc(C(=O)Nc2ccccc2)cn1`, the outcome (in assay [1]; in the assay with Pseudomonas aeruginosa; in the assay on Staphylococcus aureus [2]; in the assay on Escherichia coli; in the assay with Trichosporon asahii; in the assay on Nakaseomyces glabratus) was inactive. In addition, the result in the assay on Candida albicans, in the assay on Lichtheimia corymbifera, in the assay with Klebsiella pneumoniae [4], with Aspergillus fumigatus, with Staphylococcus aureus [6] and in the assay with Klebsiella pneumoniae [8] was inactive. For the same molecule, the outcome (in the assay with Candida tropicalis; with Enterococcus sp. [9]; in [10]; in the assay with Pichia kudriavzevii) was inactive. Besides, the MIC in assay [3] is over 100 µg/mL; with Mycobacterium kansasii it was over 100 µg/mL; in assay [5], 9.6 µM (≈ 3.13 µg/mL); with Enterococcus sp. [7], 62.5 µM (≈ 20.4 µg/mL).

With `CCCCCCCNc1cnc(C(=O)Nc2ccccc2Cl)cn1`, the result (in assay [1]; in the assay on Pseudomonas aeruginosa; in the assay on Staphylococcus aureus [2]; in the assay on Escherichia coli; with Trichosporon asahii; in the assay with Nakaseomyces glabratus) was inactive. The outcome in the assay on Candida albicans, in the assay on Lichtheimia corymbifera, with Klebsiella pneumoniae [4], in the assay on Aspergillus fumigatus, with Staphylococcus aureus [6] and in the assay on Klebsiella pneumoniae [8] was inactive. The outcome (with Candida tropicalis; with Enterococcus sp. [9]; in assay [10]; in the assay with Pichia kudriavzevii) was inactive. Besides, the MIC is over 25 µg/mL in [3], over 25 µg/mL against Mycobacterium kansasii and 36 µM (≈ 12.5 µg/mL) in assay [5]. For the same molecule, in the assay on Enterococcus sp. [7], the outcome was Active.
